Test results taken from patent US7691858B2, “Kinase inhibitors and methods of use thereof” (TargeGen, Inc., priority 2006, dated 2010).
Entries after “also recorded” stand apart in the source; their conditions may differ.

Key:
[1] = system: dextran-induced inflammatory edema; experiment: Rat hindpaw inflammation model, dextran; assay type: in vivo, Sprague Dawley rats
Protocol: FIG. 4. Inhibition of edema and inflammation. (a, b) Rats were injected i.v. with Evans blue dye and then intradermally with saline, VEGF or histamine. […] (c-f) Rat hindpaws were injected with either PAF (c & d) or dextran (e & f), and three hours later processed as H&E-stained paraffin sections. […] Images were taken of paws representing the mean group value for volume as presented in Results (original magnification 200×).
The Miles assay models a primarily endothelial-based response that develops rapidly (within minutes). As a comparator, we next employed a rodent hindpaw model where more complex inflammatory reactions develop over several hours. Agonists included PAF, a GPCR ligand that activates both EC and leukocytes, and dextran, a phagocytic stimulus for mast cell and leukocyte activation. […] Paw volume (a more quantitative measure of edema and inflammation) was reduced by 62% and 78% in response to PAF or dextran, respectively (n=8, P<0.001). Finally, to correlate these in vivo responses with the molecular target of interest, we monitored PI3K pathway signaling through Western blot analyses of Akt phosphorylation (a PI3K-mediated event).
In order to determine the influence of compounds on the development of inflammation, Sprague Dawley rats were first injected intravenously with either vehicle or test compound at 5 mg/kg, and then 30 min later either PBS (as a control), dextran or platelet activating factor (PAF) was injected into the plantar surface of the hindlimbs, dextran and PAF being known to induce localized inflammatory responses marked by edema. Three hours later, paw dimensions were measured using a caliper and paw volumes calculated; data are shown as the increase in paw volume (mm^3) as compared to controls (paws injected with PBS).

[2] = target: T1, Abl (Mus musculus, UniProt P00520); experiment: Kinase panel screen; assay type: biochemical; conditions: Compound I and ATP 10 μM
T1 construct: purchased Upstate USA or Invitrogen (commercial screening service)

[3] = target: Akt2 (Homo sapiens, UniProt P31751); experiment: Kinase panel screen; assay type: biochemical; conditions: Compound I at 1 μM and ATP at the apparent Km
[4] = target: T2, MEK2 (Homo sapiens, UniProt P36507); experiment: Kinase panel screen; assay type: biochemical; conditions: Compound I at 1 μM and ATP at the apparent Km
T2 construct: purchased Upstate USA or Invitrogen (commercial screening service)

[5] = target: T3, PKD2 (Homo sapiens, UniProt Q9BZL6); experiment: Kinase panel screen; assay type: biochemical; conditions: Compound I and ATP 10 μM
T3 construct: purchased Upstate USA or Invitrogen (contract screening service)

[6] = system: AMPK; experiment: Kinase panel screen; assay type: biochemical, rat; conditions: Compound I and ATP 10 μM
[7] = target: T4, FGFR1 (Homo sapiens, UniProt P11362); experiment: Kinase panel screen; assay type: biochemical; conditions: Compound I and ATP 10 μM
T4 construct: purchased Upstate USA or Invitrogen (contract screening service)

[8] = target: T5, PRAK (Homo sapiens, UniProt Q8IW41); experiment: Kinase panel screen; assay type: biochemical; conditions: Compound I and ATP 10 μM
T5 construct: purchased Upstate USA or Invitrogen (contract screening service)

[9] = target: MKK6 (Homo sapiens, UniProt P52564); experiment: Kinase panel screen; assay type: biochemical; conditions: Compound I and ATP 10 μM
[10] = target: T6, Blk (Mus musculus, UniProt P16277); experiment: Kinase panel screen; assay type: biochemical; conditions: Compound I and ATP 10 μM
T6 construct: purchased Upstate USA or Invitrogen (commercial screening service)

[11] = target: T7, Fms (Homo sapiens, UniProt P07333); experiment: Kinase panel screen; assay type: biochemical; conditions: Compound I and ATP 10 μM
T7 construct: purchased Upstate USA or Invitrogen (commercial screening service)

[12] = target: T8, Ros (Homo sapiens, UniProt P08922); experiment: Kinase panel screen; assay type: biochemical; conditions: Compound I and ATP 10 μM
T8 construct: purchased Upstate USA or Invitrogen (commercial screening service)

[13] = target: T9, BTK (Homo sapiens, UniProt Q06187); experiment: Kinase panel screen; assay type: biochemical; conditions: Compound I and ATP 10 μM
T9 construct: purchased Upstate USA or Invitrogen (commercial screening service)

[14] = target: T10, Fyn (Homo sapiens, UniProt P06241); experiment: Kinase panel screen; assay type: biochemical; conditions: Compound I and ATP 10 μM
T10 construct: purchased Upstate USA or Invitrogen (commercial screening service)

[15] = target: T11, Rse (Homo sapiens, UniProt Q06418); experiment: Kinase panel screen; assay type: biochemical; conditions: Compound I and ATP 10 μM
T11 construct: purchased Upstate USA or Invitrogen (commercial screening service)

[16] = target: T12, cKit (Homo sapiens, UniProt P10721); experiment: Kinase panel screen; assay type: biochemical; conditions: Compound I and ATP 10 μM
T12 construct: purchased Upstate USA or Invitrogen (commercial screening service)

[17] = target: T13, NEK7 (Homo sapiens, UniProt Q8TDX7); experiment: Kinase panel screen; assay type: biochemical; conditions: Compound I and ATP 10 μM
T13 construct: purchased Upstate USA or Invitrogen (commercial screening service)

[18] = target: T14, Rsk1 (Rattus norvegicus, UniProt Q63531); experiment: Kinase panel screen; assay type: biochemical; conditions: Compound I and ATP 10 μM
T14 construct: purchased Upstate USA or Invitrogen (commercial screening service)

[19] = target: T15, HIPK2 (Homo sapiens, UniProt Q9H2X6); experiment: Kinase panel screen; assay type: biochemical; conditions: Compound I and ATP 10 μM
T15 construct: purchased Upstate USA or Invitrogen (commercial screening service)

[20] = target: T16, CDK2 (Homo sapiens, UniProt P24941); experiment: Kinase panel screen; assay type: biochemical; conditions: Compound I and ATP 10 μM
T16 construct: purchased Upstate USA or Invitrogen (commercial screening service)

[21] = target: T17, IKKβ (Homo sapiens, UniProt O14920); experiment: Kinase panel screen; assay type: biochemical; conditions: Compound I and ATP 10 μM
T17 construct: purchased Upstate USA or Invitrogen (commercial screening service)

[22] = target: T18, IR (Homo sapiens, UniProt P06213); experiment: Kinase panel screen; assay type: biochemical; conditions: Compound I and ATP 10 μM
T18 construct: purchased Upstate USA or Invitrogen (commercial screening service)

[23] = target: T19, CDK5 (Homo sapiens, UniProt Q00535); experiment: Kinase panel screen; assay type: biochemical; conditions: Compound I and ATP 10 μM
T19 construct: purchased Upstate USA or Invitrogen (commercial screening service)

[24] = target: T20, Pim-1 (Homo sapiens, UniProt P11309); experiment: Kinase panel screen; assay type: biochemical; conditions: Compound I and ATP 10 μM
T20 construct: purchased Upstate USA or Invitrogen (contract screening service)

[25] = target: T21, CDK6 (Homo sapiens, UniProt Q00534); experiment: Kinase panel screen; assay type: biochemical; conditions: Compound I and ATP 10 μM
T21 construct: purchased Upstate USA or Invitrogen (contract screening service)

[26] = target: T22, JAK3 (Homo sapiens, UniProt P52333); experiment: Kinase panel screen; assay type: biochemical; conditions: Compound I and ATP 10 μM
T22 construct: purchased Upstate USA or Invitrogen (contract screening service)

[27] = target: T23, CDK7 (Homo sapiens, UniProt P50613); experiment: Kinase panel screen; assay type: biochemical; conditions: Compound I and ATP 10 μM
T23 construct: purchased Upstate USA or Invitrogen (contract screening service)

[28] = target: JNK1a1 (Homo sapiens, UniProt P45983); experiment: Kinase panel screen; assay type: biochemical; conditions: Compound I and ATP 10 μM
[29] = target: CHK1 (Homo sapiens, UniProt O14757); experiment: Kinase panel screen; assay type: biochemical; conditions: Compound I and ATP 10 μM
[30] = target: T24, PKCpiI (Homo sapiens, UniProt P05771); experiment: Kinase panel screen; assay type: biochemical; conditions: Compound I and ATP 10 μM
T24 construct: purchased Upstate USA or Invitrogen (commercial screening service)

[31] = target: T25, cSrc (Homo sapiens, UniProt P12931); experiment: Kinase panel screen; assay type: biochemical; conditions: Compound I and ATP 10 μM
T25 construct: purchased Upstate USA or Invitrogen (commercial screening service)

[32] = target: T26, PKC8 (Homo sapiens, UniProt Q05655); experiment: Kinase panel screen; assay type: biochemical; conditions: Compound I and ATP 10 μM
T26 construct: purchased Upstate USA or Invitrogen (commercial screening service)

CHK1, sequence (O14757 whole entry): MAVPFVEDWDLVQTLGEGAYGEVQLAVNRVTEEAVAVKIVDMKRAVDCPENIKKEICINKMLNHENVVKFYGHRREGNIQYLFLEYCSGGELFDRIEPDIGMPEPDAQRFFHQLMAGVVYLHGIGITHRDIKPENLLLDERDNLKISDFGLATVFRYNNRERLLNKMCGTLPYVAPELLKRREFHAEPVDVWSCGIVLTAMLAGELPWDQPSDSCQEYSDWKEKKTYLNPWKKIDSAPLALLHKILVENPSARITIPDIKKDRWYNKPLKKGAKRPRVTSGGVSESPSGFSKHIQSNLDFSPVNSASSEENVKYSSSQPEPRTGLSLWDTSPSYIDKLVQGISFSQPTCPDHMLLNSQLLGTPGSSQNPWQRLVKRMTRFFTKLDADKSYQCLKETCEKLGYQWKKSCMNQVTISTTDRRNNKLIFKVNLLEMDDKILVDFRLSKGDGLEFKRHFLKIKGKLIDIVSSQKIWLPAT
T10 sequence (P06241 whole entry): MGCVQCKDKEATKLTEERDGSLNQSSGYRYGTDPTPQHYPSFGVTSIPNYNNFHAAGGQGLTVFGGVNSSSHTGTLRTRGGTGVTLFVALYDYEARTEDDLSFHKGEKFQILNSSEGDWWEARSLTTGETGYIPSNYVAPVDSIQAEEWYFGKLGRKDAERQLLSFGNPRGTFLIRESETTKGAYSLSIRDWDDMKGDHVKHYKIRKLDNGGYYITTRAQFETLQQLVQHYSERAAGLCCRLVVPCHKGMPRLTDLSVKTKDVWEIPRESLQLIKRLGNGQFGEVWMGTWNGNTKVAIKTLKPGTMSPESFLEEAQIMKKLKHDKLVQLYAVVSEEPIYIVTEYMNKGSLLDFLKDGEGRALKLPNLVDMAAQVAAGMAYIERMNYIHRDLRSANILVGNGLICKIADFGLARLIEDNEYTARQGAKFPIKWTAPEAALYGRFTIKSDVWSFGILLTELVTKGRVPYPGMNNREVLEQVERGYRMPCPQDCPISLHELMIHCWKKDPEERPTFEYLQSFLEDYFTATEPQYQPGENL
T15 sequence (Q9H2X6 whole entry): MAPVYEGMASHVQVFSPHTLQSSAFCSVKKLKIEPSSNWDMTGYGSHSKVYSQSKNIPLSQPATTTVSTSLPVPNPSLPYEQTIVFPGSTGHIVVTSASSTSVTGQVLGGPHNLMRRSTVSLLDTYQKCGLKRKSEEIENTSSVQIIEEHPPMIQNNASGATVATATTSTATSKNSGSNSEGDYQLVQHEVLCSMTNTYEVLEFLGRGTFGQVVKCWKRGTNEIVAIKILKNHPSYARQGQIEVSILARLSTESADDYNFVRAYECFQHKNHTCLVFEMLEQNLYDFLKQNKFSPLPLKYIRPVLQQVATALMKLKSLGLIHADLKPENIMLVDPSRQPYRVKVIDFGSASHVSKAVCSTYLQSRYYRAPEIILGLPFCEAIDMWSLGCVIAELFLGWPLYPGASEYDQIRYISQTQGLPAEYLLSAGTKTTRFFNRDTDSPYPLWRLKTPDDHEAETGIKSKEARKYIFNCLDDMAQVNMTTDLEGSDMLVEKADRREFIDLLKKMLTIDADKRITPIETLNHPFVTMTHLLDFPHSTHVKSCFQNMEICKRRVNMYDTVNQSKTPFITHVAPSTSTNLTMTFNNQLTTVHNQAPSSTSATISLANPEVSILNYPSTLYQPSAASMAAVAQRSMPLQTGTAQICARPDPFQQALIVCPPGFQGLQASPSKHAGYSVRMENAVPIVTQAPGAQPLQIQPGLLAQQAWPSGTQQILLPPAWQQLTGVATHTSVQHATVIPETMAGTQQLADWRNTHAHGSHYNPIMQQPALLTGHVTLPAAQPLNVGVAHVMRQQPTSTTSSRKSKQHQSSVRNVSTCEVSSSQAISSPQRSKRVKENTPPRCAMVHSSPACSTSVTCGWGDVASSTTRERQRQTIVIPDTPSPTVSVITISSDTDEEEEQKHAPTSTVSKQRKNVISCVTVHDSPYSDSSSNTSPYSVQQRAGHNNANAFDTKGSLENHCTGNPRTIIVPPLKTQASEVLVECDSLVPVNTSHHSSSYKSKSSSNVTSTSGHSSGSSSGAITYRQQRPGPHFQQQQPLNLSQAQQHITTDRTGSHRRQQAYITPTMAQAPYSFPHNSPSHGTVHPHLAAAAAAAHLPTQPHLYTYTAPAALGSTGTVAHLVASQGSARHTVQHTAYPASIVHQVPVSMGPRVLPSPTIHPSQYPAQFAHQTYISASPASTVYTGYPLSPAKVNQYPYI
T5 sequence (Q8IW41 whole entry): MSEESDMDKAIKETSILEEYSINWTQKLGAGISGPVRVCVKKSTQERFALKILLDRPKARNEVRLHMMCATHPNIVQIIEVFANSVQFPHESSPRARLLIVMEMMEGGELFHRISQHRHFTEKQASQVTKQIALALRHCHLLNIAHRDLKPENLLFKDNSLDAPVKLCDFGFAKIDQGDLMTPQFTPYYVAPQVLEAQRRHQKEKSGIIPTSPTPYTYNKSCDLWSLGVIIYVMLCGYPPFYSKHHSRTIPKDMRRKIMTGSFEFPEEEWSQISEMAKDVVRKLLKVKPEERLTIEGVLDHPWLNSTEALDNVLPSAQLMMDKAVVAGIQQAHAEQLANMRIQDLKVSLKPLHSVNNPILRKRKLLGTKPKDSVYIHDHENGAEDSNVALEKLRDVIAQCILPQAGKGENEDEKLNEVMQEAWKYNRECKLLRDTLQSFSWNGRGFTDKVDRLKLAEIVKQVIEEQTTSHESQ
T19 sequence (Q00535 whole entry): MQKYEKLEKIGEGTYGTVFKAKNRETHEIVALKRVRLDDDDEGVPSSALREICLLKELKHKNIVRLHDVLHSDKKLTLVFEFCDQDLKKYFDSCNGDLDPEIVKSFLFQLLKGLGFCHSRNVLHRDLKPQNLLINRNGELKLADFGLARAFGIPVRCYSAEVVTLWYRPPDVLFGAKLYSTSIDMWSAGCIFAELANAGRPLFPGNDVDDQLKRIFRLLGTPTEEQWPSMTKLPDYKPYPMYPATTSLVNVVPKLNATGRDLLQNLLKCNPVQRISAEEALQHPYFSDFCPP
T19 sequence (Q15078 whole entry partner): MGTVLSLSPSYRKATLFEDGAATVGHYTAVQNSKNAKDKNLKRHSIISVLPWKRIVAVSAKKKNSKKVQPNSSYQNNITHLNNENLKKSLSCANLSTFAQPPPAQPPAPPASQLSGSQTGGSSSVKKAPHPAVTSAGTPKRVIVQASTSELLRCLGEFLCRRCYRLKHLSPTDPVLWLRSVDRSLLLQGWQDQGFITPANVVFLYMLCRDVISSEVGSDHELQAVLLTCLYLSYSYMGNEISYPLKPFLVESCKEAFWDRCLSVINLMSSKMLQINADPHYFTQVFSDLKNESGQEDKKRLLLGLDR
T13 sequence (Q8TDX7 whole entry): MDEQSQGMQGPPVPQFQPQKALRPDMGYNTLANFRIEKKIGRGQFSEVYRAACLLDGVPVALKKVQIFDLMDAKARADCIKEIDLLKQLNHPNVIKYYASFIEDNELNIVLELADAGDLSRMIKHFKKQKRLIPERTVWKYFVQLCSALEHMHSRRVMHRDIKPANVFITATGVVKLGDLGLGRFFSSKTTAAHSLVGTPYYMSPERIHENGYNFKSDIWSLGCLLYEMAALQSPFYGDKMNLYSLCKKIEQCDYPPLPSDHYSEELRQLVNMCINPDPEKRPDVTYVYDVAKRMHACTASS
T21 sequence (Q00534 whole entry): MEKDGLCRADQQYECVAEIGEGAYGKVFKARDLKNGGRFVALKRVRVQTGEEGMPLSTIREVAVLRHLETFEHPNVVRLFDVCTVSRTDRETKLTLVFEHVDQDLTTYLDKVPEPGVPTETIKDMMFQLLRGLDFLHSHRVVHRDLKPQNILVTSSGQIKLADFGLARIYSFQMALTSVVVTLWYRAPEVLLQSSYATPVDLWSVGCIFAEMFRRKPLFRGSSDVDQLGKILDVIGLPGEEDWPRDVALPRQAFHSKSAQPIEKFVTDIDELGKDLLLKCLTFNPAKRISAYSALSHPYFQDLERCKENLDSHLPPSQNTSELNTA
T21 sequence (P30281 whole entry partner): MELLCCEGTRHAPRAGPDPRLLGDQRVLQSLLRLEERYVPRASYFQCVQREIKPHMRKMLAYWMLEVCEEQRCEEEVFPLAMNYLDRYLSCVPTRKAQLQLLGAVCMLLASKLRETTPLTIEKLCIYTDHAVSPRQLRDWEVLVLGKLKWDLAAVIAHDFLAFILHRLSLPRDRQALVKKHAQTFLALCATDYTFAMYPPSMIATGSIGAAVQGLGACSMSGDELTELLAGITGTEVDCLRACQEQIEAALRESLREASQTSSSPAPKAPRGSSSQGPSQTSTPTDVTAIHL
T17 sequence (O14920 whole entry): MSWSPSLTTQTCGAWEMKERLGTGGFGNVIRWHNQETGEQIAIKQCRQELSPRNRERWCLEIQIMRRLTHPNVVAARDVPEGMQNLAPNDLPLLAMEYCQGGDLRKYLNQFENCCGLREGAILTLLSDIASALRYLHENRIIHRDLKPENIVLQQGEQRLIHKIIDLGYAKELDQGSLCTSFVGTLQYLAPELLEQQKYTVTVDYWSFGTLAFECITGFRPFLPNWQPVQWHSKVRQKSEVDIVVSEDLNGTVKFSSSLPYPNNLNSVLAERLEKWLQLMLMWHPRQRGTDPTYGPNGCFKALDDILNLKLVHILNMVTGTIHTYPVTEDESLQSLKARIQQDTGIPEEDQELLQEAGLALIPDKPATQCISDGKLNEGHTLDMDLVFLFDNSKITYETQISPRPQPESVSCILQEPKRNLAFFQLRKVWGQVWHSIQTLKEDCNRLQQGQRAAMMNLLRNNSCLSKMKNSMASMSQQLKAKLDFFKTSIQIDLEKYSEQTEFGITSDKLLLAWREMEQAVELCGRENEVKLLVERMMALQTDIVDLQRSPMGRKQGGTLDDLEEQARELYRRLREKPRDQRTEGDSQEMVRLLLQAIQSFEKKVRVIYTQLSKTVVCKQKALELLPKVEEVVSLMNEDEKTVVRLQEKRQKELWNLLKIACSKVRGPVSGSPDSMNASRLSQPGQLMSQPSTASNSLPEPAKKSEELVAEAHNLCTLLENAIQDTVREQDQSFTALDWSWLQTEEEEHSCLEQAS

Nc1nc(N)c2nc(-c3cccc(O)c3)c(-c3cccc(O)c3)nc2n1 [Compound I, 6,7-bis-(3-hydroxyphenyl)-pteridine-2,4-diamine]
Increase in Paw Volume vs. Controls ([1]; Dextran, 5 mg/kg iv 30 min before, 3 hours, mean±SEM N=6, vehicle 148 ± 6): 32 ± 5 mm^3
edema and leukocyte infiltration (histology) ([1]; dextran, 5 mg/kg pretreatment, three hours): strongly antagonized; also recorded: blocked
reduction of paw volume ([1]; dextran, n=8): 78%
Percent Control, Abl (m) [2]: 66%
Percent Control, Akt2* [3]: 103%
Percent Control, MEK2* [4]: 94%
Percent Control, PKD2 [5]: 37%
Percent Control, AMPK (r) [6]: 88%
Percent Control, FGFR1 [7]: 75%
Percent Control, PRAK [8]: 63%
Percent Control, MKK6 [9]: 75%
Percent Control, Blk (m) [10]: 57%
Percent Control, Fms [11]: 77%
Percent Control, Ros [12]: 90%
Percent Control, BTK [13]: 75%
Percent Control, Fyn [14]: 54%
Percent Control, Rse [15]: 93%
Percent Control, cKit [16]: 96%
Percent Control, NEK7 [17]: 99%
Percent Control, Rsk1 (r) [18]: 86%
Percent Control, HIPK2 [19]: 87%
Percent Control, CDK2 (second entry) [20]: 77%
Percent Control, IKKβ [21]: 68%
Percent Control, IR [22]: 81%
Percent Control, CDK5 [23]: 82%
Percent Control, Pim-1 [24]: 70%
Percent Control, CDK6 [25]: 83%
Percent Control, JAK3 [26]: 99%
Percent Control, CDK7 [27]: 82%
Percent Control, JNK1a1 [28]: 80%
Percent Control, CHK1 [29]: 100%
Percent Control, PKCpiI [30]: 80%
Percent Control, cSrc [31]: 53%
Percent Control, PKC8 [32]: 89%
